Assay results as given in publication PMC5905968, “Evaluation of the fusion inhibitor P3 peptide as a potential microbicide to prevent HIV transmission in women” (PLoS ONE, 2018).

Columns and labels:
spermatozoa = assay: Spermicidal activity: sperm motility (CASA) and viability (Eosin Y); type: cell-based, human; details: 114 μM P3, 37°C, 0, 30, 60, 120 and 240 min, versus control without P3; donors n = 3
Experimental: Sperm was obtained from normal donors (n = 3) after signing a written informed consent. […] Spermatozoa viability was evaluated by dye exclusion method using a solution of Eosin Y (5mg/mL). Two hundred spermatozoa were counted with a phase-contrast microscope (Olympus, Modell BH-2), differentiating the live (unstained) spermatozoa from the dead (stained) cells. Sperm motility was evaluated in a Makler chamber using a computer-aided sperm analysis system (CASA, Hamilton Thorne Research, MA, USA). At least five microscopic fields were assessed in a systematic way to classify 200 spermatozoa motility. Each spermatozoon is graded according to cell velocity: progressive motility (i.e.,>5 μm/s), non-progressive motility (<5 μm/s) and immotility.

[1] = test system: vaginal epithelium of BALB/c mice; assay: BALB/c mice vaginal irritation test with histological score; type: in vivo; parameters: key to Epithelial lesion / Inflammatory infiltrate / Vascular congestion / Edema/fibrosis / Total Score: 0 (no change) when no injury or the observed changes were within normal range; 1 (minimum) when changes were sparse but exceeded those considered normal; 2 (light) when injuries were identifiable but with no severity; 3 (moderate) for significant injury that could increase in severity; 4 (very serious) for very serious injuries that occupy most of the analyzed tissue; details: for Edema/fibrosis / Epithelial lesion / Inflammatory infiltrate / Vascular congestion / Total Score: 7 days; for Total Score: sum of the four lesion scores
Experimental: Female BALB/c mice (6–8 weeks-old) (Charles River Laboratories, Wilmington, MA) were pretreated subcutaneously with 2mg of medroxyprogesterone acetate (Depo-Provera; Pfizer, NY, USA) in PBS (Lonza, Verviers, Belgium). After five days, 30μl of test formulation with different doses of P3 diluted in PBS was applied intravaginally daily for 7 days by vaginal gavage to animals previously anesthetized with isoflurane (Forane, Abbott, Madrid). Controls included mice that received PBS (placebo group) and 3% nonoxynol-9 (N9) in PBS (irritation control group). On the eighth day, mice were sacrificed and genital tract tissue were extracted and fixed in 4% paraformaldehyde for histological analysis. The animals were distributed in groups of three mice each: group placebo only treated with PBS (1–3), group A treated with dose of 0.06mg/day ([…]) of P3 in PBS (4–6), group B treated with dose of 0.2mg/day (1522.7 μM) of P3 in PBS (7–9), group C treated with dose of 0.4mg/day (3045.3 μM) of P3 in PBS (10–12) and group irritation control treated with 3% N9 in PBS (13–15).
The presence of histological lesions in the mouse vaginas was evaluated with hematoxylin-eosin staining. Samples were embedded in paraffin by submersion in increasing concentrations of ethanol in water (Rectapur, VWR, England), two baths of xylene (Analar (VWR, England) and another of paraffin, before being placed in a paraffin mold. Subsequently, they were cut using a semimotorized microtome (RM2145 Leica, Germany) and processed for staining. For dewaxing, samples were submersed into two baths of xylene solution (10 min) and three baths in descending order of ethanol (100%, 90% and 70%) (5 min), before being stained with hematoxylin (Merck, Germany) for 5 min and eosin (Merck, Germany) for another 5 min. Post-eosin staining dehydration was performed with passages in increasing concentrations of ethanol (70%, 90% and 100%) and a bath of xylene solution. Finally, they were mounted with D.P.X. (Prolabo, VWR, Spain).
The existence of injury in vaginal epithelium, inflammatory infiltrate, vascular congestion and/or edema in the submucosa was evaluated in each biological sample. The values (score) assigned for each of these lesions were: 0 (no change) when no injury or the observed changes were within normal range; 1 (minimum) when changes were sparse but exceeded those considered normal; 2 (light) when injuries were identifiable but with no severity; 3 (moderate) for significant injury that could increase in severity; 4 (very serious) for very serious injuries that occupy most of the analyzed tissue. These values were added up and determined the level of vaginal irritation as minimum 1–4, average 5–8, moderate 9–11 and severe 12–16 [34].

[2] = 456 μM/day P3 in PBS intravaginally, mouse 4
[3] = 456 μM/day P3 in PBS intravaginally, mouse 5
[4] = 456 μM/day P3 in PBS intravaginally, mouse 6
[5] = 1522.7 μM/day P3 in PBS intravaginally, mouse 7
[6] = 1522.7 μM/day P3 in PBS intravaginally, mouse 8
[7] = 1522.7 μM/day P3 in PBS intravaginally, mouse 9
[8] = 3045.3 μM/day P3 in PBS intravaginally, mouse 10
[9] = 3045.3 μM/day P3 in PBS intravaginally, mouse 11
[10] = 3045.3 μM/day P3 in PBS intravaginally, mouse 12

`CC[C@H](C)[C@H](NC(=O)[C@H](CC(N)=O)NC(=O)[C@H](C)NC(=O)[C@H](CCC(=O)O)NC(=O)[C@H](CC(C)C)NC(=O)[C@H](Cc1ccc(O)cc1)NC(=O)[C@H](CCCNC(=N)N)NC(=O)[C@@H](NC(=O)[C@H](CCC(N)=O)NC(=O)[C@H](CCC(N)=O)NC(=O)[C@H](CCC(=O)O)NC(=O)[C@H](Cc1c[nH]c2ccccc12)NC(=O)[C@H](CCC(=O)O)NC(=O)[C@H](CCC(N)=O)NC(=O)[C@H](Cc1c[nH]c2ccccc12)NC(C)=O)C(C)C)C(=O)N[C@@H](CO)C(=O)N[C@@H](CCC(N)=O)C(=O)N[C@@H](CCCNC(=N)N)C(=O)N[C@@H](CC(C)C)C(=O)N[C@@H](CCC(=O)O)C(=O)N[C@@H](CCC(N)=O)C(=O)N[C@@H](C)C(=O)N[C@@H](CCC(N)=O)C(=O)N[C@H](C(=O)N[C@@H](CCC(N)=O)C(=O)N[C@@H](CCC(N)=O)C(=O)N[C@@H](CCC(=O)O)C(=O)N[C@@H](CCCCN)C(=O)N[C@@H](CC(N)=O)C(=O)N[C@@H](CCSC)C(=O)N[C@@H](Cc1ccc(O)cc1)C(=O)N[C@@H](CCC(=O)O)C(=O)N[C@@H](CC(C)C)C(=O)N[C@@H](CCC(N)=O)C(N)=O)[C@@H](C)CC` [P3] was tested, and the spermatozoa motility (spermatozoa) was “No significant changes”, the spermatozoa vitality (spermatozoa) was “No significant changes” and the Edema/fibrosis [1, 2] was 0. It also gave an Epithelial lesion [1, 2] of 1, an Inflammatory infiltrate [1, 2] of 0 and a Vascular congestion [1, 2] of 1. The “Total Score” value [1, 2] was 2, the Edema/fibrosis [1, 3] was 1 and the Epithelial lesion [1, 3] was 1. For the same compound, the Inflammatory infiltrate [1, 3] was 1, the Vascular congestion [1, 3] was 0 and the “Total Score” value [1, 3] was 3. The Edema/fibrosis [1, 4] was 0, the Epithelial lesion [1, 4] was 0 and the Inflammatory infiltrate [1, 4] was 0. The Vascular congestion [1, 4] was 0, the “Total Score” value [1, 4] was 0 and the Edema/fibrosis [1, 5] was 0. The Epithelial lesion [1, 5] was 1, the Inflammatory infiltrate [1, 5] was 1 and the Vascular congestion [1, 5] was 1. The “Total Score” value [1, 5] was 3, the Edema/fibrosis [1, 6] was 0 and the Epithelial lesion [1, 6] was 0. For the same compound, the Inflammatory infiltrate [1, 6] was 0, the Vascular congestion [1, 6] was 1 and the “Total Score” value [1, 6] was 1. It also gave an Edema/fibrosis [1, 7] of 0, an Epithelial lesion [1, 7] of 0 and an Inflammatory infiltrate [1, 7] of 2. For the same compound, the Vascular congestion [1, 7] was 2, the “Total Score” value [1, 7] was 4 and the Edema/fibrosis [1, 8] was 0. For the same compound, the Epithelial lesion [1, 8] was 4, the Inflammatory infiltrate [1, 8] was 3 and the Vascular congestion [1, 8] was 3. For the same compound, the Edema/fibrosis [1, 9] was 0, the Epithelial lesion [1, 9] was 2 and the Inflammatory infiltrate [1, 9] was 0. The Vascular congestion [1, 9] was 1, the “Total Score” value [1, 9] was 3 and the Edema/fibrosis [1, 10] was 1. The Epithelial lesion [1, 10] was 4, the Inflammatory infiltrate [1, 10] was 2 and the Vascular congestion [1, 10] was 2. For the same compound, the “injuries (histology)” value ([1]; group A, 0.06 mg/day (456.8 μM) P3, 7 days) was “minimal or even absent”, the “level of irritation of the vaginal wall” value ([1]; group B, 0.2 mg/day (1522.7 μM) P3, 7 days) was “minimal” and the “score of vaginal irritation” value ([1]; group C, 0.4 mg/day (3045.3 μM) P3, 7 days, mice 10 and 12) was “moderate (moderate 9–11)”. For the same compound, the “irritation of the vaginal epithelium” value ([1]; group C, 0.4 mg/day (3045.3 μM) P3, 7 days, the other mouse (sample 11)) was “minimal”.
